Assay results published in patent US8569229B2, “Compositions and methods which modulate G-protein signaling for the treatment of inflammatory disorders such as asthma and allergic conjunctivitis” (The Children's Hospital of Philadelphia, priority 2008, dated 2013).
Entries after “also recorded” stand apart in the source; their conditions may differ. Like-named read-outs stand apart in the source and are kept apart here. Numbered stars: 1 amine (or outer) side, 2 acyl side, 3 side chain; on linkers, the order of the positions; unused ones are H or OH. Bridge positions count the residues as written; N and C are the ends. Square brackets hold non-standard residues; d marks the D form. Ends that are not written are not given here. Peptide text beside a SMILES is read from it. I, II: the chains in the order shown. Actinocin(9to1) = Cc1c2oc3c(C)ccc(C(=O)[*:1])c3nc-2c(C(=O)[*:2])c(N)c1=O; NMeV = CN[C@H](C(=O)O)C(C)C; Sar = CNCC(=O)O

What was measured:
PDE4D5 mRNA = test: Detection of PDE4D5 mRNA transcripts by RT-PCR in ASM cells; assay type: cell-based, human
Source text: (§1) Detection of PDE4D5 mRNA transcripts: Total RNA was extracted from the cultured ASM cells using the TRIzol method (Invitrogen), and cDNAs were isolated by RT-PCR using the SuperScript First Strand Synthesis System kit from Invitrogen, with the following oligonucleotide primer sets (Integrated DNA Technologies): for PDE4D5, 5′-[…]-3′ (forward; SEQ ID NO: 2) and 5′-[…]-3′ (reverse; SEQ ID NO: 3); and for β-actin, 5′-[…]-3′ (forward; SEQ ID NO: 4) and 5′-[…]-3′ (reverse; SEQ ID NO: 5). The reaction volume was 20 μl and cycling conditions used were 35 cycles of 30 sec denaturation at 95° C., followed by 30 sec annealing at 60° C. and elongation at 72° C. for 30 sec. Ex-Tag (Takara Biotechnology) was used as DNA polymerase. […] Following protein extraction and the addition of gel-loading buffer, the extracts were loaded on a 10% SDS-PAGE gel for immunoblotting after transfer to a PVDF membrane. The membranes were then incubated overnight with monoclonal mouse anti-human primary antibodies directed against phospho-CREB and -ATF1, phospho-ERK1/2, or α-actin, and levels were detected by ECL after a 1-hr incubation with a 1:2,000 dilution of HRP-conjugated rabbit anti-mouse secondary antibody, followed by exposure to autoradiography film. The protein band intensities were quantified by densitometry. siRNA-mediated knockdown of PKA: ASM cells were seeded into 6-well plates and, at ˜40% confluency, the medium was replaced with the reduced serum-containing medium, Opti-MEM (Invitrogen). The cells were then transfected twice during a 24-hr interval with two pools of three siRNA duplexes, each pool targeted against the human PKAα or PKAγ catalytic subunits (Santa Cruz Biotechnology; sc-36240 and sc-36236, respectively), or with a non-targeted control (scrambled) siRNA duplex, using Oligofectamine (Invitrogen) as the transfection agent. The pools of siRNAs were applied to each well at a final concentration of 100 nM for each siRNA preparation. […] Transfection of ASM cells with adeno-βARK-ct: Adenovirus (adeno)-βARK-ct, an adenovirus vector encoding the βARK1 carboxyl-terminal domain which blocks Gβγ signaling (25,26), and adeno-β-gal, an adenovirus vector expressing lacZ as a negative control, were constructed using the AdenoX adenovirus construction kit (BD-Clontech). Recombinant plaques were isolated and propagated in HEK293 cells (Invitrogen), with viral purification using the cesium chloride gradient method, and viral titer detected by plaque assay. The ASM cells were transfected with either of the adenoviral vectors at a multiplicity of infection (MOI) of 100, and experiments were conducted at 24 hr following adenoviral tranfections. Pharmacodynamic studies of constrictor and relaxation responsiveness in rabbit ASM tissues: Following initial sedation and subsequent general anesthesia with intramuscular injections of xylazine (10 mg/kg) and ketamine (50 mg/kg), respectively, rabbits were sacrificed with an intravenously administered overdose of sodium pentobarbital (100 mg/kg). As described previously (16), the tracheae were excised via open thoracotomy, the loose connective tissue and epithelium were scraped and removed, and the tracheae were divided into 8 ring segments, each of 6-8 mm in length. […] After these incubations, the tissues were placed in organ baths containing modified Krebs-Ringer solution aerated with 5% CO2 in oxygen (pH of 7.35-7.40), and attached to force transducers to continuously monitor isometric tension. […] The constrictor and relaxation dose-response curves were analyzed with respect to each tissue's maximal isometric contractile force (Tmax) to ACh and maximal relaxation response (Rmax) to isoproterenol from the initial level of active cholinergic contraction. Statistical analyses: Results are expressed as mean±SE values. Comparisons between groups were made using the Student's t-test (two-tailed) or ANOVA with Tukey's post-test analysis, where appropriate.

CREB/ATF1 = test: Immunoblot analysis of CREB/ATF1 phosphorylation in ASM cells; assay type: cell-based, human
Source text: as §1

ERK1/2 = test: Immunoblot analysis of ERK1/2 phosphorylation in ASM cells; assay type: cell-based, human
Source text: as §1

rabbit ASM tissues [1] = test: Constrictor responsiveness to acetylcholine (ACh) in isolated rabbit ASM tissues, isometric tension in organ bath
Source text: as §1

rabbit ASM tissues [2] = test: Relaxation responsiveness to isoproterenol in isolated rabbit ASM tissues half-maximally contracted with ACh
Source text: as §1

human ASM cells [3] = test: Assay of cAMP PDE activity in ASM cell lysates; assay type: cell-based; conditions: for effect of pretreatment on PGE2-induced increase in PDE activity: PGE2 100 nM x 24 hr, peptides 30 μM (Example III)
human ASM cells [4] = test: Assay of cAMP PDE activity in ASM cell lysates; assay type: cell-based; conditions: for effect of the agent alone on basal PDE activity: no cAMP-elevating agent
Procedure: Assay of cAMP PDE activity: Levels of cAMP PDE activity were assayed in ASM cell lysates using a colorimetric, non-radioactive enzymatic assay kit from Biomol, as per the manufacture's protocol. PDE activity was determined following exposure of ASM cells for 24 hr to either vehicle alone (control), PGE2 (100 μM), or forskolin (100 μM) in the absence and presence of pretreatment with rolipram (10 μM), cycloheximide (100 μM), actinomycin D (4 μM), or H89 (10 μM).
In each case, the measured levels of PDE activity were standardized to the protein content in the cell extracts.

[5] = PGE2 or forskolin x 24 hr (100 μM in text, 100 nM in legends)
[6] = salmeterol or isoproterenol 10 μM x 24 hr
[7] = vehicle-exposed control tissues

Oc1c2ccccc2c2c3c(cccc13)N=N2 [SP600125]
effect of pretreatment on β2AR agonist (isoproterenol)-induced upregulated PDE4D5 mRNA expression (PDE4D5 mRNA; isoproterenol 10 μM, 6 hr): no effect

CN(C)S(=O)(=O)c1ccc2c(c1)/C(=C/c1cc3c([nH]1)CCCC3)C(=O)N2 [SU6656]
effect of pretreatment on PGE2-induced upregulated PDE4D5 mRNA expression (PDE4D5 mRNA; PGE2 100 nM, 6 hr): ablated | effect of pretreatment on PGE2-induced upregulated PDE4D5 mRNA expression (PDE4D5 mRNA; PGE2 100 nM, 6 hr, listed as Src inhibitor): markedly inhibited | effect of pretreatment on β2AR agonist (isoproterenol)-induced upregulated PDE4D5 mRNA expression (PDE4D5 mRNA; isoproterenol 10 μM, 6 hr): prevented; also recorded: ablated | effect on PGE2-induced phosphorylation of CREB/ATF1 (CREB/ATF1; PGE2 100 nM, 30 min): largely prevented; also recorded: ablated | effect on PGE2-induced phosphorylation of ERK1/2 (ERK1/2; PGE2 100 nM, 30 min): largely prevented; also recorded: ablated

Oc1ccc(-c2nc(-c3ccncc3)c(-c3ccc(F)cc3)[nH]2)cc1 [SB202190]
effect of pretreatment on PGE2-induced upregulated PDE4D5 mRNA expression (PDE4D5 mRNA; PGE2 100 nM, 6 hr): neither the p38 MAPK nor JNK inhibitor (lanes 5 and 6, respectively) had an attenuating effect | effect of pretreatment on β2AR agonist (isoproterenol)-induced upregulated PDE4D5 mRNA expression (PDE4D5 mRNA; isoproterenol 10 μM, 6 hr): unaffected; also recorded: no effect | effect on PGE2-induced phosphorylation of CREB/ATF1 (CREB/ATF1; PGE2 100 nM, 30 min): neither PGE2-induced phosphorylation of ERK1/2 nor CREB/ATF was affected | effect on PGE2-induced phosphorylation of ERK1/2 (ERK1/2; PGE2 100 nM, 30 min): neither PGE2-induced phosphorylation of ERK1/2 nor CREB/ATF was affected

N#CC(=C(/N)Sc1ccccc1N)/C(C#N)=C(\N)Sc1ccccc1N [U0126]
effect of pretreatment on PGE2-induced increase in constrictor responsiveness to ACh (rabbit ASM tissues [1]): abrogated | effect of pretreatment on salmeterol-induced increase in constrictor responsiveness to ACh (rabbit ASM tissues [1]): completely abrogated; also recorded: prevents | effect of the agent alone on constrictor responses to ACh (rabbit ASM tissues [1]): no significant effect; also recorded: did not exhibit any significant changes | effect of pretreatment on PGE2-induced impaired relaxation to isoproterenol (rabbit ASM tissues [2]): abrogated | effect of pretreatment on salmeterol-induced impaired relaxation to isoproterenol (rabbit ASM tissues [2]): completely ablated; also recorded: prevents | effect of the agent alone on relaxation responses to isoproterenol (rabbit ASM tissues [2]): no significant effect; also recorded: did not exhibit any significant changes | effect of pretreatment on PGE2-induced upregulated PDE4D5 mRNA expression (PDE4D5 mRNA): largely prevented; also recorded: ablated | effect of pretreatment on β2AR agonist (isoproterenol)-induced upregulated PDE4D5 mRNA expression (PDE4D5 mRNA): largely prevented; also recorded: ablated | effect on PGE2-induced phosphorylation of CREB/ATF1 (CREB/ATF1): abrogated; also recorded: ablated | effect on PGE2-induced phosphorylation of ERK1/2 (ERK1/2): completely abrogated; also recorded: ablated | effect on isoproterenol (β2AR agonist)-induced phosphorylation of ERK1/2 (ERK1/2): ablated | effect of pretreatment on PGE2- and forskolin-induced increases in PDE activity (human ASM cells [3]): completely ablated | effect of pretreatment on salmeterol- and isoproterenol-induced increase in PDE activity (human ASM cells [3]): prevented; also recorded: ablated | effect of the agent alone on basal PDE activity (human ASM cells [3]): neither H89 nor U0126 alone had a significant effect

C=C[C@@]1(C)CC(=O)[C@]2(O)[C@@]3(C)[C@@H](O)CCC(C)(C)[C@@H]3[C@H](O)[C@H](OC(C)=O)[C@@]2(C)O1 [forskolin]
PDE activity, fold above control (human ASM cells [4]; cells incubated 24 hr with the agent (PGE2 or forskolin 100 μM; salmeterol or isoproterenol 10 μM)): 4.01 fold

O=C1Nc2ccc(I)cc2/C1=C/c1cc(Br)c(O)c(Br)c1 [GW5074]
effect on PGE2-induced phosphorylation of ERK1/2 (ERK1/2; PGE2 100 nM, 30 min): completely ablated; also recorded: prevents | effect on isoproterenol (β2AR agonist)-induced phosphorylation of ERK1/2 (ERK1/2; isoproterenol 10 μM, 20 min): completely abrogated; also recorded: prevents

Cc1c2oc3c(C)ccc(C(=O)N[C@@H]4C(=O)N[C@H](C(C)C)C(=O)N5CCC[C@H]5C(=O)N(C)CC(=O)N(C)[C@@H](C(C)C)C(=O)O[C@@H]4C)c3nc-2c(C(=O)N[C@@H]2C(=O)N[C@H](C(C)C)C(=O)N3CCC[C@H]3C(=O)N(C)CC(=O)N(C)[C@@H](C(C)C)C(=O)O[C@@H]2C)c(N)c1=O [actinomycin D] (I: T[dV]P[Sar][NMeV] / II: T[dV]P[Sar][NMeV]; ester I:1-I:C, II:1-II:C; linker I:N-II:N via Actinocin(9to1))
effect of the agent alone on basal PDE activity (human ASM cells [4]): neither actinomycin D nor cycloheximide alone significantly affected | effect of pretreatment on PGE2- and forskolin-induced increases in PDE activity (human ASM cells [3]; [5]): completely ablated | effect of pretreatment on salmeterol- and isoproterenol-induced increase in PDE activity (human ASM cells [3]; [6]): completely ablated

COC(=O)[C@H](CC(C)C)NC(=O)c1ccc(NC[C@@H](N)CS)cc1-c1cccc2ccccc12 [GGTI-298]
effect on PGE2-induced phosphorylation of ERK1/2 (ERK1/2; PGE2 100 nM, 30 min): did not exhibit attenuated; also recorded: no effect | effect on isoproterenol (β2AR agonist)-induced phosphorylation of ERK1/2 (ERK1/2; isoproterenol 10 μM, 20 min): did not exhibit attenuated; also recorded: no effect

pertussis toxin [PTX]
effect of pretreatment on PGE2-induced increase in constrictor responsiveness to ACh (rabbit ASM tissues [1]; PGE2 100 nM x 24 hr): abrogated | effect of the agent alone on constrictor responses to ACh (rabbit ASM tissues [1]; [7]): no significant effect | effect of pretreatment on PGE2-induced impaired relaxation to isoproterenol (rabbit ASM tissues [2]; PGE2 100 nM x 24 hr): abrogated | effect of the agent alone on relaxation responses to isoproterenol (rabbit ASM tissues [2]; [7]): no significant effect | effect of pretreatment on PGE2-induced upregulated PDE4D5 mRNA expression (PDE4D5 mRNA; PGE2 100 nM, 6 hr): markedly inhibited; also recorded: ablated | effect of pretreatment on β2AR agonist (isoproterenol)-induced upregulated PDE4D5 mRNA expression (PDE4D5 mRNA; isoproterenol 10 μM, 6 hr): prevented; also recorded: ablated | effect on PGE2-induced phosphorylation of CREB/ATF1 (CREB/ATF1; PGE2 100 nM, 30 min): largely prevented; also recorded: ablated | effect on PGE2-induced phosphorylation of ERK1/2 (ERK1/2; PGE2 100 nM, 30 min): largely prevented; also recorded: ablated | effect of pretreatment on PGE2-induced increase in PDE activity (human ASM cells [3]): completely ablated | effect of pretreatment on PGE2- and forskolin-induced increases in PDE activity (human ASM cells [3]; [5]): completely ablated | effect of pretreatment on salmeterol- and isoproterenol-induced increase in PDE activity (human ASM cells [3]; [6]): completely abrogated; also recorded: ablated

MPS- Gαi2 (AAVALLPAVLLALLAKNNLKDCGLF; also: MPS attached) [Gαi2 blocking peptide]
effect of pretreatment on PGE2-induced increase in PDE activity (human ASM cells [3]): only a partial inhibitory effect | effect of pretreatment on PGE2-induced increase in PDE activity (human ASM cells [3]; listed as anti-Gαi2 inhibitory peptide): only exerts a partial inhibitory effect

C[C@@H]1C[C@@H]([C@H](O)CC2CC(=O)NC(=O)C2)C(=O)[C@@H](C)C1 [cycloheximide]
effect of the agent alone on basal PDE activity (human ASM cells [4]): neither actinomycin D nor cycloheximide alone significantly affected | effect of pretreatment on PGE2- and forskolin-induced increases in PDE activity (human ASM cells [3]; [5]): completely ablated | effect of pretreatment on salmeterol- and isoproterenol-induced increase in PDE activity (human ASM cells [3]; [6]): completely ablated
